Assay results reported in BindingDB's records for patent US9260439 (Pfizer, 2016).
pKi: −log10 of the molar value.

Target: Phosphatidylinositol 3-kinase regulatory subunit alpha [Q431L,Q432E,D433V,Q434L,V435F,V436Q,K437G,E438P]/4,5-bisphosphate 3-kinase catalytic subunit alpha isoform (Homo sapiens, UniProt P42336)
Test: Biochemical Assay
Source text: PI3KA_Act: Genes encoding for full length p110alpha and p85alpha nSH-iSH2=niSH2 (p85a aminoacids 322-600) subunits of PI3Kalpha complex were subcloned from existing constructs into pFASTBAC Dual vector (Life Technologies, Carlsbad, Calif.) using standard cloning procedures. Gene encoding p110alpha subunit was subcloned into polyhedrine promoter while gene encoding p85alpha niSH2 domains was subcloned into p10 promoter. Additionally, Human Rhinovirus 3C Protease (HRV 3C) site was introduced between nSH2 and iSH2, replacing aminoacids 431-438 of p85alpha with […] HRV 3C recognition sequence, using standard QuickChange mutagenesis protocol (Agilent Technologies, CA). Recombinant baculovirus was generated using Bac-to-Bac protocol (Life Technologies, Carlsbad, Calif.). The biochemical assays of kinase activity of full-length PI3Kalpha (full-length p110alpha/p85a) or truncated PI3Kalpha (p110alpha/iSH2 p85a) were conducted using a fluorescence polarization format similar to the procedure of Yuan J., et al., (2011) "PF-04691502, a Potent and Selective Oral Inhibitor of PI3K and mTOR Kinases with Antitumor Activity, Mol Cancer Ther. 10, 2189-2199.

Row | SMILES | pKi
1 | C[C@]1(N2CCc3c(-c4cnc(N)nc4)nc(N4CCOCC4)nc32)CCN(C(=O)C2(F)CC2)C1 [US9260439, 331] | > 10.74
2 | CC(=O)NCC(=O)N1CC(N2CCc3c(-c4cnc(N)nc4)nc(N4CCOC[C@@H]4C)nc32)C1 [US9260439, 201] | 8.85
3 | CC(C)(CO)C(=O)N1CC[C@](C)(N2CCc3c(-c4cnc(N)nc4)nc(N4CCOCC4)nc32)C1 [US9260439, 277] | 10.47
4 | C[C@]1(N2CCc3c(-c4cnc(N)nc4)nc(N4CCOCC4)nc32)CCN(C(=O)C2(CO)CC2)C1 [US9260439, 339] | 10.10
5 | C[C@]1(N2CCc3c(-c4cnc(N)nc4)nc(N4CCOCC4)nc32)CCN(C(=O)C2(O)CC2)C1 [US9260439, 338] | 10.15
